For assay [1], the system named is mitochondrial membrane potential. The assay is classed as cell-based, mouse.
Assay [2] relates to reactive oxygen species. The format is cell-based, mouse.
The subject of assay [3] is OXPHOS gene expression. The format is cell-based, mouse.
Assay [4] concerns nuOXPHOS transcripts. The format is cell-based, mouse.
The test system of assay [5] is mtOXPHOS transcripts. The assay is classed as cell-based, mouse.
Assay [6] has as its system cytochrome c. The assay is classed as cell-based, mouse.
Assay [7] relates to C2C12 myotubes.
The test system of assay [8] is cellular dehydrogenase activity.
Where [9] appears, read: composite Z-score vs mock-treated (DMSO) wells, Conc 20 μM.
[10] abbreviates: composite Z-score vs DMSO, Conc 20 μM.
[11] abbreviates: 20 μM, composite Z-score vs DMSO.

Like-named read-outs stand apart in the source and are kept apart here.

For the compound `C[C@H](C[C@@H](O)[C@@H]1OC1(C)C)[C@@H]1CC[C@]2(C)C3=CC[C@H]4C(C)(C)C(=O)CC[C@]4(C)[C@H]3CC[C@@]12C` (stereo in doubt) [niloticin], the ΔΨm in assay [1] (setting [9]) amounted to 0.461. This compound also gave an ROS in assay [2] (setting [9]) of 0.817. This compound came in with a GE-HTS in assay [3] (setting [9]) of 0.543. Besides, the nucOX in assay [4] (setting [9]) was found to be 0.648. For the same compound, the mitoOX in assay [5] (setting [9]) is 0.151. In addition, in assay [6] (setting [9]), the cyt c turned out to be 0.136. Also, the Viability in assay [7] (setting [9]) worked out at 1.304. Further, the MTT in assay [8] (setting [9]) was −0.481.

On to `COc1cc(O)c(C(=O)/C=C/c2ccccc2)c(OC)c1` [flavokawain B], for which, in assay [1] (setting [10]), the ΔΨm is on record as −0.302. The ROS in assay [2] (setting [10]) amounted to 0.292. Moreover, the GE-HTS in assay [3] (setting [10]) is −1.453. In addition, the nucOX in assay [4] (setting [10]) is given as −1.423. Also, the mitoOX in assay [5] (setting [10]) is given as −1.291. In assay [6] (setting [10]), this compound yielded a cyt c of 0.708. The Viability in assay [7] (setting [10]) is given as 0.583. Besides, the MTT in assay [8] (setting [10]) was −0.298.

As for `COc1cccc2c1CCC1=CC(=O)CCC12C` (stereo not drawn), in assay [1] (setting [9]), the ΔΨm was −0.506. Besides, in assay [2] (setting [9]), the ROS is on record as 0.673. The GE-HTS in assay [3] (setting [9]) was −0.465. In addition, in assay [4] (setting [9]), the nucOX is −0.372. The mitoOX in assay [5] (setting [9]) is −0.626. Moreover, the cyt c in assay [6] (setting [9]) is recorded as −0.293. The Viability in assay [7] (setting [9]) is on record as −0.577. Besides, the MTT in assay [8] (setting [9]) is −1.530.

Turning to `COC(=O)[C@@H]1OC(=O)C2OC23[C@@]1(C)CCC1[C@]2(C)C(C[C@@H](O)[C@]13C)C(C)(C)[C@H](OC(C)=O)C[C@@H]2OC(C)=O` (stereo partly drawn), the ΔΨm in assay [1] (setting [9]) is −0.579. This compound also yielded an ROS in assay [2] (setting [9]) of 0.177. The GE-HTS in assay [3] (setting [9]) is on record as −0.376. For the same compound, the nucOX in assay [4] (setting [9]) is on record as −0.485. In addition, the mitoOX in assay [5] (setting [9]) is reported as −0.039. In addition, the cyt c in assay [6] (setting [9]) stood at 1.004. In addition, the Viability in assay [7] (setting [9]) was found to be 0.474. Also, the MTT in assay [8] (setting [9]) is listed as −0.427.

`COc1ccc([C@@H](C)C(=O)c2ccc(O)cc2O)cc1` [(R)-angolensin]: the ΔΨm in assay [1] (setting [9]) is −0.444. Further, the ROS in assay [2] (setting [9]) is 0.225. This compound also gave a GE-HTS in assay [3] (setting [9]) of 0.403. The same compound showed a nucOX in assay [4] (setting [9]) of 0.703. The mitoOX in assay [5] (setting [9]) is −0.245. Also, the cyt c in assay [6] (setting [9]) was −0.063. The Viability in assay [7] (setting [9]) is on record as −0.164. Besides, the MTT in assay [8] (setting [9]) is recorded as −0.743.

Turning to `OC(c1cc(C(F)(F)F)nc2c(C(F)(F)F)cccc12)C1CCCCN1` (stereo not drawn) [mefloquine], the ΔΨm in assay [1] is −0.537; in assay [1] (setting [11]), −0.505. The results for the ROS in assay [2] and in assay [2] (setting [11]) were −0.069 and −0.983, respectively. Also, the GE-HTS in assay [3] was −0.036; in assay [3] (setting [11]), 0.362. For the same compound, the figures for the nucOX in assay [4] and in assay [4] (setting [11]) were −0.073 and 0.552, respectively. Moreover, the values for the mitoOX in assay [5] and in assay [5] (setting [11]) were 0.007 and −0.093, respectively. For the same compound, the cyt c was 0.498 in assay [6] and −1.496 in assay [6] (setting [11]). The Viability in assay [7] is −0.183; in assay [7] (setting [11]), 1.135. The MTT in assay [8] is −1.368; in assay [8] (setting [11]) it was 0.374.

As for `C=C(C)c1cc2cc(C(C)=O)c(O)cc2o1` [euparin], the ΔΨm in assay [1] (setting [9]) was −0.010. The ROS in assay [2] (setting [9]) turned out to be 0.795. For the same compound, in assay [3] (setting [9]), the GE-HTS is recorded as 1.120. Further, the nucOX in assay [4] (setting [9]) is given as 1.293. In addition, the mitoOX in assay [5] (setting [9]) amounted to 0.484. In assay [6] (setting [9]), this compound came in with a cyt c of 0.419. Further, in assay [7] (setting [9]), the Viability worked out at 0.021. Further, the MTT in assay [8] (setting [9]) was −0.912.

In the case of `O=c1cc(-c2ccc(O)cc2)oc2cc(O[C@@H]3O[C@H](CO)[C@@H](O)[C@H](O)[C@H]3O[C@@H]3OC[C@](O)(CO)[C@H]3O)cc(O)c12` [apiin], in assay [1] (setting [10]), the ΔΨm is given as 0.029. In addition, in assay [2] (setting [10]), the ROS turned out to be 0.322. For the same compound, in assay [3] (setting [10]), the GE-HTS was −0.032. The nucOX in assay [4] (setting [10]) was −0.150. The mitoOX in assay [5] (setting [10]) is on record as 0.250. The cyt c in assay [6] (setting [10]) is listed as −0.697. In addition, the Viability in assay [7] (setting [10]) was −0.631. The MTT in assay [8] (setting [10]) is given as −1.444.

The record behind these values is US20090143279A1 (priority 2007, published 2009).
